In BindingDB's records for patent US20240199535 (Immunic, 2024):

Biological target: Dihydroorotate dehydrogenase (quinone), mitochondrial (Homo sapiens, UniProt Q02127)
Sequence (Q02127 whole entry): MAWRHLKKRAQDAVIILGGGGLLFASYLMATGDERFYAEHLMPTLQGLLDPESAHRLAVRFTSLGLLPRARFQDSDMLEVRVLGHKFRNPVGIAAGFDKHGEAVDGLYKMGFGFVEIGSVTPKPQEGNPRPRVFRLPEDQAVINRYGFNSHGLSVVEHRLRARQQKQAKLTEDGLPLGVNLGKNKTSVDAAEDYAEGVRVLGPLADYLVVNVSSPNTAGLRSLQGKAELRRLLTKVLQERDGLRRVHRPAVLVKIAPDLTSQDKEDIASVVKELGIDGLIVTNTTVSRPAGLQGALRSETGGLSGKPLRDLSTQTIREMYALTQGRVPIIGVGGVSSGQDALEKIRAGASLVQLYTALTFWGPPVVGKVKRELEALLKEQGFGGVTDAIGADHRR
Method: Briefly, the hDHODH concentration was adjusted in a way that an average slope of approximately 0.2 AU/min served as the positive control (e.g. without inhibitor). The standard assay mixture contained 60 μM 2,6-dichloroindophenol, 50 μM decylubiquinone and 100 μM dihydroorotate. The hDHODH enzyme with or without at least six different concentrations of the compounds was added and measurements were performed in 50 mM TrisHCl, 150 mM KCl and 0.1% Triton X-100 at pH 8.0 and at 30° C. The reaction was started by adding dihydroorotate and measuring the absorption at 600 nm for 2 min. For the determination of the IC50 values, each data point was recorded in triplicate. For the determination of the inhibitory constant Ki, the KM values for DHO and decylubichinon were determined. Afterwards, the compounds were diluted in a dilution series depending on their IC50 values in DMSO.

| SMILES | Ki |
| --- | --- |
| O=C(Nc1c(F)c(F)c(-c2cccc(OC(F)(F)F)c2)c(F)c1F)c1ccsc1C(=O)O [US20240199535, Example 4] | 3.7 nM |
| O=C(O)C1=C(C(=O)Nc2ccc(-c3cccc(OC(F)F)c3)cc2F)CCC1 [US20240199535, Example 5] | 1820 nM |
